Test results taken from patent US10023652B2, “Method of targeting glycoproteins to treat cancer” (Board of Regents of the University of Nebraska, priority 2013, dated 2018).

Tested on: phosphorylation of Akt (S473)
Test: Treatment of Capan-1 Cosmc KO cells with HER2 inhibitor, Akt phosphorylation by immunoblotting
Type: cell-based, human
Settings: 24 h, FIG. 9B

Question: For `COCC(=O)NC/C=C/c1ccc2ncnc(Nc3ccc(Oc4ccc(C)nc4)c(C)c3)c2c1` [CP724714], which “phosphorylation of Akt” value is on record?
Answer: decreases the phosphorylation of Akt in a dose dependent manner
